For seven compounds, Kd results are on record in paper PMC11703153 (bioRxiv, 2025).

The target of one assay is T1, ChREBP (ChREBPα) (Mus musculus, UniProt Q99MZ3).
T1 sequence (Q99MZ3 43-307): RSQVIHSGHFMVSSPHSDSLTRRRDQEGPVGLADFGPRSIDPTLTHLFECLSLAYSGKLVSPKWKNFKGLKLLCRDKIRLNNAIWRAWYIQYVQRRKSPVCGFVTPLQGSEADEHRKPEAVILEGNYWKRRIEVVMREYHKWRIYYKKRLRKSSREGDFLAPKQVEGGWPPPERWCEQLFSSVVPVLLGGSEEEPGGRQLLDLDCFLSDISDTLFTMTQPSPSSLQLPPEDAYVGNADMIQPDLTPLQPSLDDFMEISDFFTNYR
The experiment in a line: isothermal titration calorimetry, purified refolded GSM domain, […] °C. In kind it is binding.
Details: not given
In general terms: ITC needs no label: the signal is the heat of the interaction.
For the compound `O=C(CO)COP(=O)(O)O` [DHAP, dihydroxyacetone phosphate], binding was characterised by a dissociation constant (Kd) of 453 µM.

The assay is the same for the next values; noted with them: read-out: Kd ± SD.
Regarding `OC[C@H]1OC(O)[C@H](O)[C@@H](O)[C@@H]1O` (stereo partly shown) [Glc, glucose], the Kd (commonly the equilibrium constant for the complex coming apart) turned out to be 270 µM. Consider `O=CC(O)COP(=O)(O)O` (stereo not shown) [GA3P, glyceraldehyde-3-phosphate], for which the Kd was 221 µM.

For `O=P(O)(O)OC[C@H]1OC(O)[C@H](O)[C@@H](O)[C@@H]1O` (stereo partly shown) [G6P, glucose-6-phosphate], the Kd was determined as 64.3 µM. With `O=P(O)(O)OCC(O)CO` (stereo not shown) [G3P, glycerol-3-phosphate], the Kd came out at 17 µM.

Take `O=P(O)(O)OC[C@H]1OC(O)(COP(=O)(O)O)[C@@H](O)[C@@H]1O` (stereo partly shown) [F1,6BP, fructose-1,6-bisphosphate]: the Kd was 250 µM.

Turning to `O=C(CO)[C@@H](O)[C@H](O)[C@H](O)COP(=O)(O)O` [F6P], the Kd was 131 µM.
